Results as given in ChEMBL document CHEMBL1201862, “PubChem BioAssay data set” (2004).
Activity calls are given as the source filed them.

Assays:
Protein skinhead-1 = molecular target: T1, Protein skinhead-1 (Caenorhabditis elegans, UniProt P34707); format: functional
T1 sequence (P34707 whole entry): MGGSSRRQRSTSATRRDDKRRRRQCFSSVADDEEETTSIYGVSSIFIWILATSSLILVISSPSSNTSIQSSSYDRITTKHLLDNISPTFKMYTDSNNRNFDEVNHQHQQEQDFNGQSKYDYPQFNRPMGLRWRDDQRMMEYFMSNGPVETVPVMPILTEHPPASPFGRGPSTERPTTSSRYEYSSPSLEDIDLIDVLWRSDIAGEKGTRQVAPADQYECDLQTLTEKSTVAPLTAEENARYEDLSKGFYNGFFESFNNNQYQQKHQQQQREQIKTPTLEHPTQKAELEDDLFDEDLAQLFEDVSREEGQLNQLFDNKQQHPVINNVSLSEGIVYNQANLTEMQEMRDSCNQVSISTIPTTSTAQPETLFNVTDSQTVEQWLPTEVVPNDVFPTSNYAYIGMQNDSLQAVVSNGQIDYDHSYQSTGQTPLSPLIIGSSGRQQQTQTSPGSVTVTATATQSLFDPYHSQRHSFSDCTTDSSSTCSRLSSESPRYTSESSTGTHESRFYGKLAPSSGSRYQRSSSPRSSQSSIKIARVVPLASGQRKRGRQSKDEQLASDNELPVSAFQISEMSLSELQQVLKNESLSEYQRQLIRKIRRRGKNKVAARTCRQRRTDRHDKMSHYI

cells = format: functional
[1] = molecular target: T2, Rac GTPase-activating protein 1 (Homo sapiens, UniProt Q9H0H5); assay: MgcRacGAP GTPase-activating activity inhibitors, confirmation, biochemical, ADP Hunter fluorescence, primary and confirmatory (AID 624330); format: functional
T2 sequence (Q9H0H5 whole entry): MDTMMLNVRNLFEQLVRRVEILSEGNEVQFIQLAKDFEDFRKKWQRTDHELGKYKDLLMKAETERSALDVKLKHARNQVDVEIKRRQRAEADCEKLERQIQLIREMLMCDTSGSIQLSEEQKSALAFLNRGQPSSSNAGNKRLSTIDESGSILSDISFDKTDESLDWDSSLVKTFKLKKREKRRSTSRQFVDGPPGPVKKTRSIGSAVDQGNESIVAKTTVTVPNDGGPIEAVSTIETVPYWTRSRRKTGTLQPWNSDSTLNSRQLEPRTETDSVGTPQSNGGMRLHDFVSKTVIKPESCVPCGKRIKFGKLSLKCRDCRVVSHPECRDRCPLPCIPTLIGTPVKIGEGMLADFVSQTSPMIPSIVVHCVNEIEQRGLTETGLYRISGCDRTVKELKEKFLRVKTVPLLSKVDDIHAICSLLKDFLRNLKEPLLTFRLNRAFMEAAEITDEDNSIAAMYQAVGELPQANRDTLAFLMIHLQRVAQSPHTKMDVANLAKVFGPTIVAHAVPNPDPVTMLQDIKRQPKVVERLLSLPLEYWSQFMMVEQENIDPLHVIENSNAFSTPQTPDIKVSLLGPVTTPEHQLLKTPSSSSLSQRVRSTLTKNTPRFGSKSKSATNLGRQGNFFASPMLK

Protein RecA = molecular target: T3, Protein RecA (Mycobacterium tuberculosis, UniProt P9WHJ3); assay: Fluorescence Cell-Free Homogeneous Dose Retest to Identify Inhibitors of RecA-Intein Splicing Activity. [Related pubchem assays (depositor defined):AID2097, AID2223, AID489010, AID492950]; format: functional
T3 sequence (P9WHJ3 whole entry): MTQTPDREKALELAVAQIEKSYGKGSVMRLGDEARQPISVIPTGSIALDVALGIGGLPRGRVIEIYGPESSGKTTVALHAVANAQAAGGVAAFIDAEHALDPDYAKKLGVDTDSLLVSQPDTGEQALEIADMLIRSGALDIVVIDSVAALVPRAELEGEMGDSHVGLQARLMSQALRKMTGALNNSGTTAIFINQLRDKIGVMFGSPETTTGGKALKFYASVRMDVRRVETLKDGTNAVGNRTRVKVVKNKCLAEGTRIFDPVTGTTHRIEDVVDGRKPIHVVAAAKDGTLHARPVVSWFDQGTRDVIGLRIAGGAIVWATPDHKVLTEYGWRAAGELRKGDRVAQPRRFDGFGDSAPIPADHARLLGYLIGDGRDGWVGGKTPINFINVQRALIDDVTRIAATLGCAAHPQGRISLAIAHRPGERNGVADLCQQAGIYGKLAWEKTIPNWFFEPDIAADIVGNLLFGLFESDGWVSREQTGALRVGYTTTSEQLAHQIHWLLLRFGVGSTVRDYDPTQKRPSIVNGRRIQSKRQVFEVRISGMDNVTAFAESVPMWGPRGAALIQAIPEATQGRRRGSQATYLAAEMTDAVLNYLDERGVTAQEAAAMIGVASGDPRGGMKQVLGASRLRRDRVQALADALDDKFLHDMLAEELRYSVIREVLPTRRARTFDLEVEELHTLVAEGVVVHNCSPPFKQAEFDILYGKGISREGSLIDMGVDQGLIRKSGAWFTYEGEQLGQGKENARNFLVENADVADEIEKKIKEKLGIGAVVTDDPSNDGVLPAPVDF

[2] = molecular target: T4, Replicative DNA helicase DnaB (Mycobacterium tuberculosis, UniProt P9WMR3); assay: DnaB intein splicing inhibitors, dose response, biochemical, cell-free fluorescence (AID 449749); format: functional
T4 sequence (P9WMR3 whole entry): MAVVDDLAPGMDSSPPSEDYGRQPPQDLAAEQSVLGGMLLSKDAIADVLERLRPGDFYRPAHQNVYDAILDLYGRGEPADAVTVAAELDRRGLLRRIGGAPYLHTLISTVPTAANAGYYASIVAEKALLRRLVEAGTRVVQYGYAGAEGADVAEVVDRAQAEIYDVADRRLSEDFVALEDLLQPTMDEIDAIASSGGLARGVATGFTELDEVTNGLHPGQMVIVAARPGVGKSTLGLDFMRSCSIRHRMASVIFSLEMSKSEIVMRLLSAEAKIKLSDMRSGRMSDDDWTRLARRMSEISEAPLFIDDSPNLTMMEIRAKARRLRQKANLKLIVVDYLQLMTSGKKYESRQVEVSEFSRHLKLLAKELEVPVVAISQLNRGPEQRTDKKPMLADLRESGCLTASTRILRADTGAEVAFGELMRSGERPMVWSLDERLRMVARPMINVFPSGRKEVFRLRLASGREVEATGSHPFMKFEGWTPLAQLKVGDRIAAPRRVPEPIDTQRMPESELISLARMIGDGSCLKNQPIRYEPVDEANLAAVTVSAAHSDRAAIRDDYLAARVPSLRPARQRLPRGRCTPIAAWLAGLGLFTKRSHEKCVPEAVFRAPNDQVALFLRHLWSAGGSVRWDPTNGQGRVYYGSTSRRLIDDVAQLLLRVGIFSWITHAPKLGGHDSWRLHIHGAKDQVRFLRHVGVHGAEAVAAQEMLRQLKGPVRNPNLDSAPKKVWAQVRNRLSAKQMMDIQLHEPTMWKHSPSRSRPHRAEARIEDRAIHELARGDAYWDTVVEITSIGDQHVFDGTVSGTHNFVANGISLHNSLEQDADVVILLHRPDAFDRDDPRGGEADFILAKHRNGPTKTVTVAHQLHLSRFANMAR

[3] = Luminescence Cell-Based Dose Response HTS to Identify Inhibitors of 5'UTR Stem-Loop Driven Prion Protein mRNA Translation in H4 Neuroglioblastoma Cells. [Related pubchem assays: 1827 (Project Summary), 1813 (Primary HTS)]; format: functional
[4] = inhibitors of SNCA 5'UTR-driven reporter translation, confirmation, H4 neuroglioma cells, luminescence (AID 1988); format: functional, cell-based
[5] = inhibitors of firefly luciferase expression or activity, dose response, H4 neuroglioma cells, luminescence (AID 1990); format: functional, cell-based
[6] = molecular target: T5, Zinc finger protein mex-5 (Caenorhabditis elegans, UniProt Q9XUB2); assay: MEX-5/TCR-2 RNA interaction inhibitors, dose response, biochemical, C. elegans, fluorescence polarization (AID 1960)
T5 sequence (Q9XUB2 whole entry): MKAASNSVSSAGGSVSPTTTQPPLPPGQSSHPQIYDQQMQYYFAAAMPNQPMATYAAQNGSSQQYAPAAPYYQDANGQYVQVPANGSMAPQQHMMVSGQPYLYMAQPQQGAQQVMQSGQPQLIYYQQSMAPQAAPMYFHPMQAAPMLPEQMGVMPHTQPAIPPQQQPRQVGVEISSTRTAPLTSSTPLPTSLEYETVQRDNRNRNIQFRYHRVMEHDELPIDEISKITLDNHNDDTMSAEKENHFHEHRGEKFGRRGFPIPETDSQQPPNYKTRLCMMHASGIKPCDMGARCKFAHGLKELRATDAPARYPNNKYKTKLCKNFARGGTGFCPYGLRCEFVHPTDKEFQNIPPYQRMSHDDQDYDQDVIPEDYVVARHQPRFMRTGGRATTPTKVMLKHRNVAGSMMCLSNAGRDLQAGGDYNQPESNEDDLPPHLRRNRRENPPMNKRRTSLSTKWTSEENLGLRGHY

[7] = molecular target: T6, RNA-binding protein pos-1 (Caenorhabditis elegans, UniProt G5EF15); assay: inhibitors of POS-1/mex-3 RNA binding, dose response, biochemical, fluorescence polarization (AID 1964);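 further: purified POS-1 fused to maltose binding protein made in E. coli; potency of compounds blocking POS-1 binding to fluorescent RNA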
T6 sequence (G5EF15 whole entry): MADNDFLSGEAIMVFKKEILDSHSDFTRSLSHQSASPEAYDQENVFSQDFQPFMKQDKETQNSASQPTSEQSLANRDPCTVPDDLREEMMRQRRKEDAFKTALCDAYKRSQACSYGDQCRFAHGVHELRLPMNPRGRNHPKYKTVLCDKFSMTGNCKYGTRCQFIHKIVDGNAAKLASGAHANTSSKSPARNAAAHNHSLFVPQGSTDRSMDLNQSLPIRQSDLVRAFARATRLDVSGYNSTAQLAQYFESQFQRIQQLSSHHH

INS1 = assay: beta cell apoptosis inhibitors, cytokine rescue, dose response, luminescence, retest (AID 449756); format: functional, cell-based; conditions: Rattus norvegicus;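 further: cell death triggered by IL-1 beta plus TNF-alpha plus IFN-gamma mixture; protective hits raise ATP signal compared with cytokine alone wells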
[8] = Luminescence Cell-Based Dose Retest to Confirm Inhibitors of Cancer Stem Cells. [Related pubchem assays (depositor defined):AID2717, AID2721]; format: functional; conditions: Homo sapiens

| Structure (SMILES) | IC50 (Protein skinhead-1) | EC50 (Protein RecA) | AC50 [2] | further results |
| --- | --- | --- | --- | --- |
| CCCCOC(=O)Nc1ccc(C(C)C)cc1 | 42.4 µM (active) |  |  |  |
| Cc1cc(C)c(NC(=O)C[S+]([O-])CC(=O)Nc2ccc(N3CCOCC3)cc2)c(C)c1 (stereo unspecified) | > 100 µM (inactive) |  |  |  |
| CC(=O)Nc1ccc(NC(=O)C2Cc3c(-c4cccc(F)c4)ccnc3O2)cc1 (stereo unspecified) | > 100 µM (inactive) |  |  |  |
| O=C(N/N=C/c1ccc(O)cc1)c1cccc(C(F)(F)F)c1 |  |  |  | IC50 (cells): 38.6 µM (active); IC50 [1]: 83.9 µM (active) |
| COC1(OC)C(/C=C/c2ccc(C)cc2)C(C#N)(C#N)C1(OC)OC (stereo unspecified) |  | > 380 µM (inactive) | > 380 µM (inactive) |  |
| O=C1c2ccccc2-c2nnc(-c3ccc(O)cc3)cc21 |  | 1.13 µM (active) | 15.4 µM (active) |  |
| Cc1ccc2[nH]c3c(c2c1)CN(C(=O)CN1CCSCC1)CC3 |  | 0.132 µM (active) | > 380 µM (inconclusive) |  |
| Cc1cccc(C)c1OCC(O)CN(Cc1ccccc1O)C1CCCCC1 (stereo unspecified) | > 100 µM (inactive) |  |  | EC50 [3]: > 120 µM (not active); EC50 [4]: > 120 µM (not active); EC50 [5]: > 120 µM (not active) |
| N#C/C(=C/c1cccn1-c1cccc(C(=O)O)c1)c1ccc(F)cc1 |  | > 380 µM (inconclusive) | 14.1 µM (active) | EC50 [6]: > 300 µM (not active); EC50 [7]: > 300 µM (not active) |
| CN(CCC#N)C(=O)Cn1nc(Cc2ccncc2)c2ccccc2c1=O |  | > 380 µM (inactive) | > 380 µM (inactive) |  |
| O=C(/C=C/c1ccco1)N1CCc2ccccc21 | 48.6 µM (active) |  |  |  |
| Cc1cccc(CSC(Nc2ccc(F)cc2)=C(C#N)C#N)c1 |  | 10.9 µM (active) | 7.03 µM (active) | AC50 (INS1): 4.83 µM (active) |
| O=C(Oc1ccccc1)c1cc2ccccc2o1 |  |  |  | IC50 (cells): 18.4 µM (active) |
| C(#Cc1ccc2c(c1)COc1c3ccccc3nn1-2)c1ccccc1 | > 100 µM (inactive) |  |  | EC50 [6]: 169 µM (active); EC50 [7]: > 300 µM (not active) |
| Cc1ccccc1N1CCN(Cc2ccc([N+](=O)[O-])o2)CC1 |  |  |  | IC50 (cells): 0.73 µM (active) |
| COC(=O)COc1cccc(NC(=O)c2ccc(Cl)cc2)c1 |  |  |  | IC50 (cells): 2.8 µM (active) |
| CC1OC(c2ccccc2)OC2COC(c3ccccc3)OC12 (stereo unspecified) | > 100 µM (inactive) |  |  |  |
| CS(=O)(=O)c1ccc(C(=O)OCC(=O)NC23CC4CC(CC(C4)C2)C3)cc1[N+](=O)[O-] |  | 1.32 µM (active) | 1.18 µM (active) | AC50 [8]: 2.4 µM (active) |
| Cc1cc(C(=O)CSc2nnc(-c3cccs3)n2Cc2ccccc2)c(C)n1C | > 100 µM (inactive) |  |  |  |
| CCO/C(O)=C1\C(C)=NC(SCc2cc(O)[nH]n2)=C(C#N)C1c1cccs1 (stereo unspecified) |  | 4.99 µM (active) | 6.16 µM (active) |  |
| Cn1c(SCC(=O)NCC2CCCO2)ncc(C(=O)Nc2ccc(Cl)cc2)c1=O (stereo unspecified) |  | 1.13 µM (active) | > 380 µM (inactive) |  |
| C(=C\c1ccc2ccccc2n1)/c1ccccc1 | 24.8 µM (active) |  |  |  |
